# Results reported in US8003660B2, “Modulators of muscarinic receptors” (Vertex Pharmaceuticals Incorporated, priority 2006, dated 2011).
# Experiments:
# Type in all cases: cell-based
# [1] = target: T1, M3 muscarinic receptor (Homo sapiens, UniProt P20309); assay: Functional mobilization of intracellular calcium (FLIPR) in CHO cells expressing M3; settings: for M3 Activity: CHO cells expressing M3, FLIPR calcium assay; for Emax: CHO, 100% efficacy = maximum response obtained with the Carbachol control
# T1 construct: expressed in transfected cells; host or cells: CHO (M3-CHO)
# T1 sequence (P20309 whole entry): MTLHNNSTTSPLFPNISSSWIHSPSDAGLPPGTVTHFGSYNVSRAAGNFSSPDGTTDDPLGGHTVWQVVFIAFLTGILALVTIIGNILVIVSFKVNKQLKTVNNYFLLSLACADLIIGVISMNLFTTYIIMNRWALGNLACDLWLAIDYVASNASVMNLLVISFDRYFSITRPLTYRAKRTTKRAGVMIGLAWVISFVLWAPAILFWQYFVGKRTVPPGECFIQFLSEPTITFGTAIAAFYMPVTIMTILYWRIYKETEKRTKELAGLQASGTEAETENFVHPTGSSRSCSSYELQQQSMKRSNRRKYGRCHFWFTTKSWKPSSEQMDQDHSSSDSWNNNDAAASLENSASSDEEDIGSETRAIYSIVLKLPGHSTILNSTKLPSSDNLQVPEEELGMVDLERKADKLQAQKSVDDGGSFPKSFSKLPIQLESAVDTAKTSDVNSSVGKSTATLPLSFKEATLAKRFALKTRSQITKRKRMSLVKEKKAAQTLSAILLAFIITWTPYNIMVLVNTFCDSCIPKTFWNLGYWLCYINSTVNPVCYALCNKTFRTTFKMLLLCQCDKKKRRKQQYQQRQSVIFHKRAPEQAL
# Method in brief: (§1)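 Recombinant CHO cells loaded with Fluo-3 AM or Calcium 3 dye in pH 7.4 buffer containing 1 mM probenecid, with 0.5% final DMSO. For agonism, compound is added directly. For inhibition, it is preincubated 15 min, or co-applied, before carbachol at EC80. FLIPR fluorescence (ex 488, em 540 nm) is recorded for 60 s.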
# [2] = target: T2, M1 muscarinic receptor (Homo sapiens, UniProt P11229); assay: Functional mobilization of intracellular calcium (FLIPR) in CHO cells expressing M1; settings: for M1 Activity: CHO cells expressing M1, FLIPR calcium assay; for Emax: CHO, 100% efficacy = maximum response obtained with the Carbachol control
# T2 construct: expressed in transfected cells; host or cells: CHO (M1-CHO)
# T2 sequence (P11229 1-460): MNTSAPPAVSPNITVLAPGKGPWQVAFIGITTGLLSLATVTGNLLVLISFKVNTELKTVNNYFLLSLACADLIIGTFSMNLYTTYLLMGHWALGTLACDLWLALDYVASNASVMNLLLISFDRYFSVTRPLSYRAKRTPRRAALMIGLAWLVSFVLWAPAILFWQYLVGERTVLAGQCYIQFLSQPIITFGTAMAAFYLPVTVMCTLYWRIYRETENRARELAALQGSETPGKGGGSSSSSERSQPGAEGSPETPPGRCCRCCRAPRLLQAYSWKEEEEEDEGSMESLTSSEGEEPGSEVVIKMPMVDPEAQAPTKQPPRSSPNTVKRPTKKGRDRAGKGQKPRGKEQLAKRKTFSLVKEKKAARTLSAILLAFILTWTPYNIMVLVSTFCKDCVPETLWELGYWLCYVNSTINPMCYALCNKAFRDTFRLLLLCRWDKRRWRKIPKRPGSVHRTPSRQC
# Method in brief: as §1
# [3] = target: T3, M4 muscarinic receptor (Homo sapiens, UniProt P08173); assay: Functional mobilization of intracellular calcium (FLIPR) in CHO cells expressing M4; settings: for M4 Activity: CHO cells expressing M4, FLIPR calcium assay; for Emax: CHO, 100% efficacy = maximum response obtained with the Carbachol control
# T3 construct: expressed in transfected cells; host or cells: CHO (M4-CHO)
# T3 sequence (P08173 1-479): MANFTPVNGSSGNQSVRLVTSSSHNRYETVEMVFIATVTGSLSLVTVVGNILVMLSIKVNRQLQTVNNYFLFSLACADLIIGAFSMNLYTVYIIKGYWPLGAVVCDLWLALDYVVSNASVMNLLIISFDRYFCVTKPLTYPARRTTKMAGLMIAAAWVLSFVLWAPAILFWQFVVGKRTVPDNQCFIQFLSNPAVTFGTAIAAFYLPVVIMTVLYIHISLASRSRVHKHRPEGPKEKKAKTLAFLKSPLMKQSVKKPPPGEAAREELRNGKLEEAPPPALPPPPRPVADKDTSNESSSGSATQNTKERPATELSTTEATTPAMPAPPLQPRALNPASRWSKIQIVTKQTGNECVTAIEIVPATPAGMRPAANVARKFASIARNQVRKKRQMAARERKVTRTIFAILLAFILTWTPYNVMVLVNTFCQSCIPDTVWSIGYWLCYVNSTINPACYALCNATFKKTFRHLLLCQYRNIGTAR
# Method in brief: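 Read-out: FLIPR fluorescence (ex 488, em 540 nm) over 60 s. Recombinant CHO lines are dye-loaded (Fluo-3 AM or Calcium 3) with 1 mM probenecid. For antagonist mode, compound is pre-incubated 15 min, or co-applied, then carbachol is added at 3× EC80 per subtype.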
# [4] = target: T4, M2 muscarinic receptor (Homo sapiens, UniProt P08172); assay: Functional mobilization of intracellular calcium (FLIPR) in CHO cells expressing M2; settings: for M2 Activity: CHO cells expressing M2, FLIPR calcium assay; for Emax: CHO, 100% efficacy = maximum response obtained with the Carbachol control
# T4 construct: expressed in transfected cells; host or cells: CHO (M2-CHO)
# T4 sequence (P08172 1-466): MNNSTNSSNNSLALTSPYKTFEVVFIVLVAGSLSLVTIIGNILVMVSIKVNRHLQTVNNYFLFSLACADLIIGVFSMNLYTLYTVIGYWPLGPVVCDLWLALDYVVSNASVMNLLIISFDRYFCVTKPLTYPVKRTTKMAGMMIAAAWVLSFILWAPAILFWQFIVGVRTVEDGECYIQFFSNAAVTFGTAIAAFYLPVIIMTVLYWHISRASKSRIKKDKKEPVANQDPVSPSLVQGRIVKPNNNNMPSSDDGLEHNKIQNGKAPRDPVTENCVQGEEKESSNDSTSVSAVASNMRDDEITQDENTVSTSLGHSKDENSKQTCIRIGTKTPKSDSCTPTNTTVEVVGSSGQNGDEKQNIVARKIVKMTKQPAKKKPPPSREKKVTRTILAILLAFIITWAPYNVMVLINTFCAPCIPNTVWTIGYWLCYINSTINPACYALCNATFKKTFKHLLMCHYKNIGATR
# Method in brief: as §1
Structure (SMILES),M3 Activity [1],Emax [1] [%],M1 Activity [2],Emax [2] [%],M4 Activity [3],Emax [3] [%],M2 Activity [4],Emax [4] [%]
CCCC(=O)N[C@H]1CC2(CCN(CCC(C)(C)C)CC2)c2ccccc21 [compound 264],+ (activity was measured to be greater than 5.0 μM),< 25,+ (activity was measured to be greater than 5.0 μM),< 25,+++ (activity was measured to be less than 2.0 μM),25 to 100,+ (activity was measured to be greater than 5.0 μM),< 25
CC(C)CCN1CCC2(CC1)C[C@H](NC(=O)c1ccoc1)c1ccccc12 [compound 267],+ (activity was measured to be greater than 5.0 μM),< 25,+ (activity was measured to be greater than 5.0 μM),< 25,+ (activity was measured to be greater than 5.0 μM),< 25,+ (activity was measured to be greater than 5.0 μM),< 25
CCC(CC)(CCC#N)CN1CCC2(CC1)C[C@H](NC(C)=O)c1ccccc12 [compound 269],+ (activity was measured to be greater than 5.0 μM),< 25,+ (activity was measured to be greater than 5.0 μM),25 to 100,++ (activity was measured to be from 2.0 μM to 5.0 μM),25 to 100,+ (activity was measured to be greater than 5.0 μM),< 25
CCC(=O)N[C@H]1CC2(CCN(C(=O)OC(C)(C)C)CC2)c2ccccc21 [compound 271],+ (activity was measured to be greater than 5.0 μM),< 25,+ (activity was measured to be greater than 5.0 μM),< 25,+ (activity was measured to be greater than 5.0 μM),< 25,+ (activity was measured to be greater than 5.0 μM),< 25
CC(=O)N[C@H]1CCC2(CCN(C(=O)OC(C)(C)C)CC2)c2ccccc21 [compound 272],+ (activity was measured to be greater than 5.0 μM),< 25,+ (activity was measured to be greater than 5.0 μM),< 25,+ (activity was measured to be greater than 5.0 μM),< 25,+ (activity was measured to be greater than 5.0 μM),< 25
CC(=O)N[C@H]1CC2(CCN(CC(C)CCC=C(C)C)CC2)c2ccccc21 (stereo partly drawn) [compound 273],+ (activity was measured to be greater than 5.0 μM),< 25,+++ (activity was measured to be less than 2.0 μM),25 to 100,+++ (activity was measured to be less than 2.0 μM),25 to 100,+ (activity was measured to be greater than 5.0 μM),< 25
CC(C)(C)OC(=O)N1CCC2(CC1)C[C@H](NC(=O)N1CCCC1)c1ccccc12 [compound 276],+ (activity was measured to be greater than 5.0 μM),< 25,+ (activity was measured to be greater than 5.0 μM),< 25,+ (activity was measured to be greater than 5.0 μM),< 25,+ (activity was measured to be greater than 5.0 μM),< 25
CC(=O)N[C@H]1CC2(CCN(CCC(C)C)CC2)c2ccccc21 [compound 277],+ (activity was measured to be greater than 5.0 μM),< 25,++ (activity was measured to be from 2.0 μM to 5.0 μM),25 to 100,+++ (activity was measured to be less than 2.0 μM),25 to 100,+ (activity was measured to be greater than 5.0 μM),< 25
CC(C)(C)OC(=O)N1CCC2(CC1)C[C@H](NC(=O)C1CC1)c1ccccc12 [compound 279],+ (activity was measured to be greater than 5.0 μM),< 25,+ (activity was measured to be greater than 5.0 μM),< 25,+ (activity was measured to be greater than 5.0 μM),< 25,+ (activity was measured to be greater than 5.0 μM),< 25
CC(=O)N[C@@H]1CCC2(CCN(C(=O)OC(C)(C)C)CC2)c2ccccc21 [compound 280],+ (activity was measured to be greater than 5.0 μM),< 25,+ (activity was measured to be greater than 5.0 μM),< 25,+ (activity was measured to be greater than 5.0 μM),< 25,+ (activity was measured to be greater than 5.0 μM),< 25
CC(=O)N[C@H]1CC2(CCN(CCC(C)CCC=C(C)C)CC2)c2ccccc21 (stereo partly drawn) [compound 282],+ (activity was measured to be greater than 5.0 μM),< 25,+++ (activity was measured to be less than 2.0 μM),25 to 100,+ (activity was measured to be greater than 5.0 μM),< 25,+ (activity was measured to be greater than 5.0 μM),< 25
Cc1ccc2c(c1)C(=O)CC21CCN(CCC(C)(C)C)CC1 [compound 288],+ (activity was measured to be greater than 5.0 μM),< 25,+ (activity was measured to be greater than 5.0 μM),25 to 100,++ (activity was measured to be from 2.0 μM to 5.0 μM),25 to 100,+ (activity was measured to be greater than 5.0 μM),< 25
CC(=O)N[C@H]1CC2(CCN(CC(=O)N(C)C)CC2)c2ccccc21 [compound 289],+ (activity was measured to be greater than 5.0 μM),< 25,+ (activity was measured to be greater than 5.0 μM),< 25,+ (activity was measured to be greater than 5.0 μM),< 25,+ (activity was measured to be greater than 5.0 μM),< 25
CC(=O)NC1CC2(CCN(C(C)C(C)C)CC2)c2ccccc21 (stereo not drawn) [compound 290],+ (activity was measured to be greater than 5.0 μM),< 25,+ (activity was measured to be greater than 5.0 μM),25 to 100,+ (activity was measured to be greater than 5.0 μM),25 to 100,+ (activity was measured to be greater than 5.0 μM),< 25
CC(C)(C)CCN1CCC2(CC1)C[C@H](NC(=O)c1ccoc1)c1ccccc12 [compound 292],+ (activity was measured to be greater than 5.0 μM),< 25,+ (activity was measured to be greater than 5.0 μM),< 25,+ (activity was measured to be greater than 5.0 μM),< 25,+ (activity was measured to be greater than 5.0 μM),< 25
